Reference: ChEMBL document CHEMBL1201862, “PubChem BioAssay data set” (2004)
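Test compounds were applied to cells in 96-well plates for 48 hours at 5 doses. Abbreviation: GI50, concentration required for 50% inhibition of growth.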 Calls of active or inactive are those of the source. Cut-off read from the data, not from the text of the source: active = GI50 up to about 1.1 µM and inactive = higher.

Columns and labels:
Assay in all cases: DTP human tumour cell line panel, 48 h
HL-60 = tested on: HL-60
SF-539 = tested on: SF-539
HCT-116 = tested on: HCT-116
ACHN = tested on: ACHN
K562 = tested on: K562
UACC-62 = tested on: UACC-62
SN12C = tested on: SN12C
Hs-578T = tested on: Hs-578T
UACC-257 = tested on: UACC-257
COLO 205 = tested on: COLO 205
SF-268 = tested on: SF-268
SW-620 = tested on: SW-620
HOP-92 = tested on: HOP-92
A549 = tested on: A549
SR = tested on: SR
M14 = tested on: M14
NCI-H522 = tested on: NCI-H522
NCI-H23 = tested on: NCI-H23
MDA-MB-231 = tested on: MDA-MB-231
CCRF-CEM = tested on: CCRF-CEM
KM12 = tested on: KM12
SNB-19 = tested on: SNB-19
OVCAR-5 = tested on: OVCAR-5
MDA-MB-435 = tested on: MDA-MB-435
MOLT-4 = tested on: MOLT-4
CAKI-1 = tested on: CAKI-1
RXF 393 = tested on: RXF 393
OVCAR-8 = tested on: OVCAR-8
SK-MEL-2 = tested on: SK-MEL-2
SK-MEL-5 = tested on: SK-MEL-5
U-251 = tested on: U-251
HCC 2998 = tested on: HCC 2998
HT-29 = tested on: HT-29
Malme-3M = tested on: Malme-3M
NCI-H460 = tested on: NCI-H460
A498 = tested on: A498
T47D = tested on: T47D
SK-OV-3 = tested on: SK-OV-3
LOX IMVI = tested on: LOX IMVI
NCI/ADR-RES = tested on: NCI/ADR-RES
786-0 = tested on: 786-0
OVCAR-3 = tested on: OVCAR-3
MCF7 = tested on: MCF7
DU-145 = tested on: DU-145
MDA-N = tested on: MDA-N
TK-10 = tested on: TK-10
UO-31 = tested on: UO-31
NCI-H226 = tested on: NCI-H226
BT-549 = tested on: BT-549
OVCAR-4 = tested on: OVCAR-4
SK-MEL-28 = tested on: SK-MEL-28
SF-295 = tested on: SF-295
HCT-15 = tested on: HCT-15
EKVX = tested on: EKVX
HOP-62 = tested on: HOP-62
RPMI-8226 = tested on: RPMI-8226
IGROV-1 = tested on: IGROV-1
PC-3 = tested on: PC-3
SNB-75 = tested on: SNB-75

Cn1nc(S(N)(=O)=O)s/c1=N/C(N)=S
GI50 (HL-60): > 100 µM (inactive)
GI50 (SF-539): > 100 µM (inactive)
GI50 (HCT-116): > 100 µM (inactive)
GI50 (ACHN): > 100 µM (inactive)
GI50 (K562): > 100 µM (inactive)
GI50 (UACC-62): > 100 µM (inactive)
GI50 (SN12C): > 100 µM (inactive)
GI50 (Hs-578T): > 100 µM (inactive)
GI50 (UACC-257): > 100 µM (inactive)
GI50 (COLO 205): > 100 µM (inactive)
GI50 (SF-268): > 100 µM (inactive)
GI50 (SW-620): > 100 µM (inactive)
GI50 (HOP-92): > 100 µM (inactive)
GI50 (A549): > 100 µM (inactive)
GI50 (SR): > 100 µM (inactive)
GI50 (M14): > 100 µM (inactive)
GI50 (NCI-H522): > 100 µM (inactive)
GI50 (NCI-H23): > 100 µM (inactive)
GI50 (MDA-MB-231): > 100 µM (inactive)
GI50 (CCRF-CEM): > 100 µM (inactive)
GI50 (KM12): > 100 µM (inactive)
GI50 (SNB-19): > 100 µM (inactive)
GI50 (OVCAR-5): > 100 µM (inactive)
GI50 (MDA-MB-435): > 100 µM (inactive)
GI50 (MOLT-4): > 100 µM (inactive)
GI50 (CAKI-1): > 100 µM (inactive)
GI50 (RXF 393): > 100 µM (inactive)
GI50 (OVCAR-8): > 100 µM (inactive)
GI50 (SK-MEL-2): > 100 µM (inactive)
GI50 (SK-MEL-5): > 100 µM (inactive)
GI50 (U-251): > 100 µM (inactive)
GI50 (HCC 2998): > 100 µM (inactive)
GI50 (HT-29): > 100 µM (inactive)
GI50 (Malme-3M): > 100 µM (inactive)
GI50 (NCI-H460): > 100 µM (inactive)
GI50 (A498): > 100 µM (inactive)
GI50 (T47D): > 100 µM (inactive)
GI50 (SK-OV-3): > 100 µM (inactive)
GI50 (LOX IMVI): > 100 µM (inactive)
GI50 (NCI/ADR-RES): > 100 µM (inactive)
GI50 (786-0): > 100 µM (inactive)
GI50 (OVCAR-3): > 100 µM (inactive)
GI50 (MCF7): > 100 µM (inactive)
GI50 (DU-145): > 100 µM (inactive)
GI50 (MDA-N): > 100 µM (inactive)
GI50 (TK-10): > 100 µM (inactive)
GI50 (UO-31): > 100 µM (inactive)
GI50 (NCI-H226): > 100 µM (inactive)
GI50 (BT-549): > 100 µM (inactive)
GI50 (OVCAR-4): > 100 µM (inactive)
GI50 (SK-MEL-28): > 100 µM (inactive)
GI50 (SF-295): > 100 µM (inactive)
GI50 (HCT-15): > 100 µM
GI50 (EKVX): > 100 µM (inactive)
GI50 (HOP-62): > 100 µM (inactive)
GI50 (RPMI-8226): > 100 µM (inactive)

CCOC(=O)c1c(N2CCCC2)ncn(Cc2ccccc2)c1=S
GI50 (HL-60): > 100 µM (inactive)
GI50 (SF-539): > 100 µM (inactive)
GI50 (HCT-116): > 100 µM (inactive)
GI50 (ACHN): 95.1 µM (inactive)
GI50 (K562): 87.5 µM (inactive)
GI50 (UACC-62): 63 µM (inactive)
GI50 (SN12C): > 100 µM (inactive)
GI50 (Hs-578T): > 100 µM (inactive)
GI50 (UACC-257): > 100 µM (inactive)
GI50 (COLO 205): > 100 µM (inactive)
GI50 (SF-268): > 100 µM (inactive)
GI50 (SW-620): > 100 µM (inactive)
GI50 (HOP-92): 19.5 µM (inactive)
GI50 (A549): > 100 µM (inactive)
GI50 (SR): > 100 µM (inactive)
GI50 (M14): > 100 µM (inactive)
GI50 (NCI-H522): > 100 µM (inactive)
GI50 (NCI-H23): > 100 µM (inactive)
GI50 (MDA-MB-231): > 100 µM (inactive)
GI50 (CCRF-CEM): > 100 µM (inactive)
GI50 (KM12): > 100 µM (inactive)
GI50 (SNB-19): > 100 µM (inactive)
GI50 (OVCAR-5): > 100 µM (inactive)
GI50 (MDA-MB-435): > 100 µM (inactive)
GI50 (MOLT-4): 92.3 µM (inactive)
GI50 (CAKI-1): 30.6 µM (inactive)
GI50 (RXF 393): > 100 µM (inactive)
GI50 (OVCAR-8): > 100 µM (inactive)
GI50 (SK-MEL-2): > 100 µM (inactive)
GI50 (SK-MEL-5): 65.3 µM (inactive)
GI50 (U-251): > 100 µM (inactive)
GI50 (IGROV-1): > 100 µM (inactive)
GI50 (HCC 2998): > 100 µM (inactive)
GI50 (PC-3): 90.4 µM (inactive)
GI50 (HT-29): > 100 µM (inactive)
GI50 (Malme-3M): > 100 µM (inactive)
GI50 (NCI-H460): > 100 µM (inactive)
GI50 (A498): 49.4 µM (inactive)
GI50 (T47D): 93.8 µM (inactive)
GI50 (SK-OV-3): > 100 µM (inactive)
GI50 (LOX IMVI): > 100 µM (inactive)
GI50 (NCI/ADR-RES): > 100 µM (inactive)
GI50 (786-0): > 100 µM (inactive)
GI50 (OVCAR-3): > 100 µM (inactive)
GI50 (SNB-75): 47.6 µM (inactive)
GI50 (DU-145): > 100 µM (inactive)
GI50 (MDA-N): > 100 µM (inactive)
GI50 (TK-10): > 100 µM (inactive)
GI50 (UO-31): 55.8 µM (inactive)
GI50 (NCI-H226): > 100 µM (inactive)
GI50 (BT-549): > 100 µM (inactive)
GI50 (OVCAR-4): 91.4 µM (inactive)
GI50 (SK-MEL-28): > 100 µM (inactive)
GI50 (SF-295): > 100 µM (inactive)
GI50 (HCT-15): > 100 µM
GI50 (EKVX): > 100 µM (inactive)
GI50 (HOP-62): > 100 µM (inactive)
GI50 (RPMI-8226): > 100 µM (inactive)
